# Experimental data from PubChem BioAssay (NCI).
#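 48-hour exposure; five concentrations; linearly interpolated endpoints. GI50 is the concentration that inhibits growth by half. TGI: concentration producing complete growth inhibition.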
# How the values were obtained:
# Assay in all cases: NCI anticancer screen, dose series, 48 h
# OVCAR-5 ovarian = test system: OVCAR-5 ovarian
# NCI/ADR-RES ovarian = test system: NCI/ADR-RES ovarian
# M14 melanoma = test system: M14 melanoma
# MDA-MB-231 breast = test system: MDA-MB-231 breast
# DU-145 prostate = test system: DU-145 prostate
# HOP-92 NSCLC = test system: HOP-92 NSCLC
# SK-MEL-2 melanoma = test system: SK-MEL-2 melanoma
# HCC-2998 colon = test system: HCC-2998 colon
# A549 NSCLC = test system: A549 NSCLC
# KM12 colon = test system: KM12 colon
# NCI-H226 lung = test system: NCI-H226 lung
# SF-268 CNS = test system: SF-268 CNS
# COLO 205 colon = test system: COLO 205 colon
# RXF 393 renal = test system: RXF 393 renal
# OVCAR-3 ovarian = test system: OVCAR-3 ovarian
# HS 578T breast = test system: HS 578T breast
# IGROV1 ovarian = test system: IGROV1 ovarian
# UACC-62 melanoma = test system: UACC-62 melanoma
# SK-MEL-5 melanoma = test system: SK-MEL-5 melanoma
# PC-3 prostate = test system: PC-3 prostate
# MCF7 breast = test system: MCF7 breast
# HCT-116 colon = test system: HCT-116 colon
# TK-10 renal = test system: TK-10 renal
# BT-549 breast = test system: BT-549 breast
# SN12C renal = test system: SN12C renal
# MDA-N = test system: MDA-N
# MALME-3M melanoma = test system: MALME-3M melanoma
# K-562 leukemia = test system: K-562 leukemia
# UO-31 renal = test system: UO-31 renal
# CAKI-1 renal = test system: CAKI-1 renal
# NCI-H460 lung = test system: NCI-H460 lung
# EKVX NSCLC = test system: EKVX NSCLC
# SK-OV-3 ovarian = test system: SK-OV-3 ovarian
# SNB-19 CNS = test system: SNB-19 CNS
# RPMI-8226 leukemia = test system: RPMI-8226 leukemia
# HCT-15 colon = test system: HCT-15 colon
# SF-295 CNS = test system: SF-295 CNS
# T-47D breast = test system: T-47D breast
# SR leukemia = test system: SR leukemia
# 786-0 renal = test system: 786-0 renal
# SF-539 CNS = test system: SF-539 CNS
# NCI-H522 lung = test system: NCI-H522 lung
# HT29 colon = test system: HT29 colon
# OVCAR-8 ovarian = test system: OVCAR-8 ovarian
# MOLT-4 leukemia = test system: MOLT-4 leukemia
# CCRF-CEM leukemia = test system: CCRF-CEM leukemia
# A498 renal = test system: A498 renal
# SNB-75 CNS = test system: SNB-75 CNS
# ACHN renal = test system: ACHN renal
# NCI-H23 lung = test system: NCI-H23 lung
# UACC-257 melanoma = test system: UACC-257 melanoma
# MDA-MB-435 = test system: MDA-MB-435
# HL-60(TB) leukemia = test system: HL-60(TB) leukemia
# SK-MEL-28 melanoma = test system: SK-MEL-28 melanoma
# LOX IMVI melanoma = test system: LOX IMVI melanoma
# HOP-62 NSCLC = test system: HOP-62 NSCLC
# OVCAR-4 ovarian = test system: OVCAR-4 ovarian
# U251 CNS = test system: U251 CNS
# SW-620 colon = test system: SW-620 colon
structure (smiles),measurement,setting,value
CCOC(=O)c1ccc(N=C2C(=S)N(c3ccc(C(=O)OCC)cc3)C(=N)N2/N=C/c2ccccc2)cc1,TGI,OVCAR-5 ovarian,40.5 µM
same,TGI,NCI/ADR-RES ovarian,> 100 µM
same,TGI,M14 melanoma,24.9 µM
same,TGI,MDA-MB-231 breast,32.6 µM
same,TGI,DU-145 prostate,> 100 µM
same,TGI,HOP-92 NSCLC,36.2 µM
same,TGI,SK-MEL-2 melanoma,> 100 µM
same,TGI,HCC-2998 colon,58 µM
same,TGI,A549 NSCLC,> 100 µM
same,TGI,KM12 colon,31.2 µM
same,TGI,NCI-H226 lung,31.4 µM
same,TGI,SF-268 CNS,52 µM
same,TGI,COLO 205 colon,25 µM
same,TGI,RXF 393 renal,19.3 µM
same,TGI,OVCAR-3 ovarian,28.8 µM
same,TGI,HS 578T breast,> 100 µM
same,TGI,IGROV1 ovarian,> 100 µM
same,TGI,UACC-62 melanoma,38.3 µM
same,TGI,SK-MEL-5 melanoma,35.6 µM
same,TGI,PC-3 prostate,18.4 µM
same,TGI,MCF7 breast,28.5 µM
same,TGI,HCT-116 colon,30.5 µM
same,TGI,TK-10 renal,62.2 µM
same,TGI,BT-549 breast,80.2 µM
same,TGI,SN12C renal,41.3 µM
same,TGI,MDA-N,33 µM
same,TGI,MALME-3M melanoma,49.1 µM
same,TGI,K-562 leukemia,> 100 µM
same,TGI,UO-31 renal,28.9 µM
same,TGI,CAKI-1 renal,42.2 µM
same,TGI,NCI-H460 lung,> 100 µM
same,TGI,EKVX NSCLC,> 100 µM
same,TGI,SK-OV-3 ovarian,59 µM
same,TGI,SNB-19 CNS,44.5 µM
same,TGI,RPMI-8226 leukemia,> 100 µM
same,TGI,HCT-15 colon,> 100 µM
same,TGI,SF-295 CNS,70.4 µM
same,TGI,T-47D breast,63.1 µM
same,TGI,SR leukemia,> 100 µM
same,TGI,786-0 renal,30 µM
same,TGI,SF-539 CNS,51.2 µM
same,TGI,NCI-H522 lung,6.1 µM
same,TGI,HT29 colon,> 100 µM
same,TGI,OVCAR-8 ovarian,> 100 µM
O=C1c2c(ccc3c2CCCC3)CC12Cc1ccc3c(c1C2=O)CCCC3,TGI,OVCAR-5 ovarian,> 100 µM
same,TGI,NCI/ADR-RES ovarian,> 100 µM
same,TGI,M14 melanoma,> 100 µM
same,TGI,MDA-MB-231 breast,> 100 µM
same,TGI,DU-145 prostate,> 100 µM
same,TGI,MOLT-4 leukemia,> 100 µM
same,TGI,CCRF-CEM leukemia,> 100 µM
same,TGI,HOP-92 NSCLC,> 100 µM
same,TGI,SK-MEL-2 melanoma,> 100 µM
same,TGI,HCC-2998 colon,> 100 µM
same,TGI,A549 NSCLC,> 100 µM
same,TGI,A498 renal,> 100 µM
same,TGI,SNB-75 CNS,> 100 µM
same,TGI,SF-268 CNS,> 100 µM
same,TGI,ACHN renal,> 100 µM
same,TGI,RXF 393 renal,> 100 µM
same,TGI,NCI-H23 lung,> 100 µM
same,TGI,UACC-257 melanoma,> 100 µM
same,TGI,MDA-MB-435,> 100 µM
same,TGI,OVCAR-3 ovarian,> 100 µM
same,TGI,HS 578T breast,> 100 µM
same,TGI,IGROV1 ovarian,> 100 µM
same,TGI,HL-60(TB) leukemia,> 100 µM
same,TGI,SK-MEL-5 melanoma,> 100 µM
same,TGI,PC-3 prostate,> 100 µM
same,TGI,MCF7 breast,> 100 µM
same,TGI,HCT-116 colon,> 100 µM
same,TGI,TK-10 renal,> 100 µM
same,TGI,MDA-N,> 100 µM
same,TGI,MALME-3M melanoma,> 100 µM
same,TGI,K-562 leukemia,> 100 µM
same,TGI,SK-MEL-28 melanoma,> 100 µM
same,TGI,UO-31 renal,> 100 µM
same,TGI,LOX IMVI melanoma,> 100 µM
same,TGI,HOP-62 NSCLC,> 100 µM
same,TGI,NCI-H460 lung,> 100 µM
same,TGI,OVCAR-4 ovarian,> 100 µM
same,TGI,EKVX NSCLC,> 100 µM
same,TGI,SK-OV-3 ovarian,> 100 µM
same,TGI,SNB-19 CNS,> 100 µM
same,TGI,RPMI-8226 leukemia,> 100 µM
same,TGI,U251 CNS,> 100 µM
same,TGI,HCT-15 colon,> 100 µM
same,TGI,SW-620 colon,> 100 µM
same,TGI,SF-295 CNS,> 100 µM
same,TGI,T-47D breast,> 100 µM
same,TGI,SR leukemia,> 100 µM
same,TGI,786-0 renal,> 100 µM
same,TGI,SF-539 CNS,> 100 µM
same,TGI,NCI-H522 lung,> 100 µM
same,TGI,HT29 colon,> 100 µM
same,TGI,OVCAR-8 ovarian,> 100 µM
C=CCOc1cccc(/C=C2\SC(=Nc3ccc(O)cc3)NC2=O)c1,GI50,OVCAR-5 ovarian,2.32 µM
same,TGI,OVCAR-5 ovarian,24.9 µM
same,GI50,NCI/ADR-RES ovarian,0.494 µM
same,TGI,NCI/ADR-RES ovarian,17.1 µM
same,GI50,M14 melanoma,0.384 µM
same,TGI,M14 melanoma,22.9 µM
same,GI50,MDA-MB-231 breast,0.975 µM
same,TGI,MDA-MB-231 breast,6.62 µM
same,GI50,DU-145 prostate,0.399 µM
same,GI50,MOLT-4 leukemia,0.523 µM
same,TGI,MOLT-4 leukemia,> 23.8 µM
same,GI50,CCRF-CEM leukemia,0.402 µM
same,TGI,CCRF-CEM leukemia,> 100 µM
same,GI50,HOP-92 NSCLC,0.863 µM
same,TGI,HOP-92 NSCLC,6.54 µM
same,GI50,SK-MEL-2 melanoma,2.91 µM
same,TGI,SK-MEL-2 melanoma,18.5 µM
same,GI50,HCC-2998 colon,1.15 µM
same,TGI,HCC-2998 colon,9.22 µM
same,GI50,A549 NSCLC,0.717 µM
same,TGI,A549 NSCLC,14.9 µM
same,GI50,A498 renal,0.79 µM
same,TGI,A498 renal,3.77 µM
same,GI50,KM12 colon,0.433 µM
same,TGI,KM12 colon,8.86 µM
same,GI50,SNB-75 CNS,0.189 µM
same,TGI,SNB-75 CNS,0.668 µM
same,GI50,NCI-H226 lung,1.21 µM
same,TGI,NCI-H226 lung,22.6 µM
same,GI50,SF-268 CNS,1.44 µM
same,TGI,SF-268 CNS,> 22.6 µM
same,GI50,ACHN renal,0.777 µM
same,TGI,ACHN renal,13.7 µM
same,GI50,COLO 205 colon,2.64 µM
same,TGI,COLO 205 colon,11.1 µM
same,GI50,RXF 393 renal,0.302 µM
same,TGI,RXF 393 renal,3.77 µM
same,GI50,NCI-H23 lung,1.01 µM
same,TGI,NCI-H23 lung,31.4 µM
same,GI50,UACC-257 melanoma,9.11 µM
same,TGI,UACC-257 melanoma,> 100 µM
same,GI50,MDA-MB-435,0.155 µM
same,TGI,MDA-MB-435,0.315 µM
same,GI50,OVCAR-3 ovarian,0.284 µM
same,TGI,OVCAR-3 ovarian,3.15 µM
same,GI50,HS 578T breast,0.414 µM
same,TGI,HS 578T breast,12.4 µM
same,GI50,IGROV1 ovarian,0.543 µM
same,TGI,IGROV1 ovarian,22.8 µM
same,GI50,UACC-62 melanoma,0.808 µM
same,TGI,UACC-62 melanoma,17.4 µM
same,GI50,HL-60(TB) leukemia,0.241 µM
same,TGI,HL-60(TB) leukemia,0.749 µM
same,GI50,SK-MEL-5 melanoma,0.555 µM
same,TGI,SK-MEL-5 melanoma,2.44 µM
same,GI50,PC-3 prostate,0.537 µM
same,TGI,PC-3 prostate,> 48.4 µM
same,GI50,MCF7 breast,0.361 µM
same,TGI,MCF7 breast,> 57.8 µM
same,GI50,HCT-116 colon,0.408 µM
same,TGI,HCT-116 colon,5.38 µM
same,GI50,TK-10 renal,4.57 µM
same,TGI,TK-10 renal,18.8 µM
same,GI50,BT-549 breast,0.529 µM
same,TGI,BT-549 breast,3.4 µM
same,GI50,SN12C renal,0.953 µM
same,TGI,SN12C renal,10.1 µM
same,GI50,MALME-3M melanoma,2.48 µM
same,TGI,MALME-3M melanoma,21.9 µM
same,GI50,K-562 leukemia,0.243 µM
same,TGI,K-562 leukemia,> 100 µM
same,GI50,SK-MEL-28 melanoma,2.47 µM
same,TGI,SK-MEL-28 melanoma,31.2 µM
same,GI50,UO-31 renal,0.832 µM
same,TGI,UO-31 renal,2.51 µM
same,GI50,LOX IMVI melanoma,0.543 µM
same,TGI,LOX IMVI melanoma,12.7 µM
same,GI50,HOP-62 NSCLC,0.66 µM
same,TGI,HOP-62 NSCLC,13.1 µM
same,GI50,CAKI-1 renal,0.466 µM
same,TGI,CAKI-1 renal,6.43 µM
same,GI50,NCI-H460 lung,0.389 µM
same,TGI,NCI-H460 lung,5.2 µM
same,GI50,OVCAR-4 ovarian,2.15 µM
same,TGI,OVCAR-4 ovarian,22.8 µM
same,GI50,EKVX NSCLC,1.47 µM
same,TGI,EKVX NSCLC,> 100 µM
same,GI50,SK-OV-3 ovarian,1.66 µM
same,TGI,SK-OV-3 ovarian,15.7 µM
same,GI50,SNB-19 CNS,0.531 µM
same,TGI,SNB-19 CNS,36.8 µM
same,GI50,RPMI-8226 leukemia,0.372 µM
same,TGI,RPMI-8226 leukemia,3.1 µM
same,GI50,U251 CNS,0.495 µM
same,TGI,U251 CNS,12.9 µM
same,GI50,HCT-15 colon,0.358 µM
same,TGI,HCT-15 colon,> 100 µM
same,GI50,SW-620 colon,0.383 µM
same,TGI,SW-620 colon,> 80.1 µM
same,GI50,SF-295 CNS,0.505 µM
same,TGI,SF-295 CNS,16.6 µM
same,GI50,T-47D breast,0.495 µM
same,TGI,T-47D breast,> 100 µM
same,GI50,SR leukemia,0.108 µM
same,TGI,SR leukemia,> 63.7 µM
same,GI50,786-0 renal,1.13 µM
same,TGI,786-0 renal,7.89 µM
same,GI50,SF-539 CNS,0.296 µM
same,TGI,SF-539 CNS,1.14 µM
same,GI50,NCI-H522 lung,0.406 µM
same,TGI,NCI-H522 lung,2.98 µM
same,GI50,HT29 colon,3.54 µM
same,TGI,HT29 colon,29.6 µM
same,GI50,OVCAR-8 ovarian,0.813 µM
same,TGI,OVCAR-8 ovarian,14 µM
